In US7115690B2, “Fluorine-containing polymer, resist composition prepared from same and novel fluorine-containing monomer” (Daikin Industries, Ltd., priority 2001, dated 2006):
Where “and” joins values, the source holds several entries; their conditions need not be identical. Equal values may be shown once.

How the values were obtained:
[1] = Measurement of pKa value by NaOH titration in water/acetone; details: for pKa: water/acetone mixture (10/15 ml)
Description: (§1) In a water/acetone mixture (10/15 ml) solution was put 0.4045 g of the above-mentioned cyclopentene derivative, followed by stirring at room temperature. After it was confirmed that the solution became homogeneous, titration was carried out with about 0.2 mol/liter NaOH solution. A titration curve was obtained by adding a NaOH solution dropwise in increments of 0.15 ml and recording a pH value at every addition. An equivalence point was determined by an inflection point (maximum differential value of titration curve=dpH/dml) of the titration curve. […] From a titration curve of water/acetone solution and aqueous solution which had been measured previously as a blank solution, a difference in a pH value derived from an electric potential difference between the solutions at titration of 4.0 ml was 1.50.

[2] = physchem; details: (2) pKa
Description: as §1

[3] = (2) pKa, titration with about 0.2 mol/liter NaOH in water/acetone, corrected with blank
[4] = titration with about 0.2 mol/liter NaOH in water/acetone, corrected with blank

Compound: OC1(C(F)(F)F)C2C=CC(C2)C1(F)F (centres unmarked)
- pKa [1, 3]: 11.5

Compound: CH2═CHCH2C(CF3)2OH [reference compound]
- (2) pKa [1, 4]: 9.6

Compound: OC(C(F)(F)F)C(F)(F)F [CF3CH(CF3)—OH, reference compound]
- (2) pKa [1, 4]: 9.3

Compound: OC(C1C=CCC1)(C(F)(F)F)C(F)(F)F (centres unmarked) [Example 12, cyclopentene having —C(CF3)2OH group]
- pKa value (single titration) ([1]; individual titrations of 0.4045 g, 0.8104 g and 0.9812 g in water/acetone (10/15 ml), listed as cyclopentene derivative having —C(CF3)2OH group): 9.95 and 9.86
- pKa [1, 3]: 9.8
- pKa ([1]; pKa value (single titration), individual titrations of 0.4045 g, 0.8104 g and 0.9812 g in water/acetone (10/15 ml)): 9.62

Compound: OC(C(F)(F)F)(C(F)(F)F)C1(F)C2C=CC(C2)C1(F)F (centres unmarked)
- pKa [2]: 8.3

Compound: OC(C1CC2C=CC1C2)(C(F)(F)F)C(F)(F)F (centres unmarked)
- pKa [1, 3]: 10.2

Compound: CF2═CF—C(CF3)2OH [reference compound]
- (2) pKa [1, 4]: 7.1

Compound: OC(C(F)(F)F)(C(F)(F)F)C1(F)CC2C=CC1C2 (centres unmarked)
- pKa [1, 3]: 9

Compound: CH2═CF—C(CF3)2OH [reference compound]
- (2) pKa [1, 4]: 8.0
